# PubChem BioAssay AID1259411 (Chemical Carcinogenesis Research Information System (CCRIS), 2018)
# Active and inactive are the calls of the source. The rule behind the calls is not given here.
# System: rodent carcinogenicity bioassays, tumor incidence
# Assay: CCRIS carcinogenicity studies
# In short: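 Archive of carcinogenicity, mutagenicity, tumor promotion and tumor inhibition results drawn from journals, NCI reports and other sources, expert-reviewed; covers 1985-2011 and is no longer updated.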
smiles,measurement,setting,value
CN(C)CCN(C)N=O,carcinogen call,"Species: HAMSTER, Strain/Sex: SYRIAN/FEMALE, Route: INTRAGASTRIC, Dose: 0, 36 MG/ML CORN OIL/ETHYL ACETATE (2:1) SOLUTION ADMINISTERED AS 0.2 ML 1/WK FOR 61 WK (STUDY DURATION: 106 WK), Tumor Site: Type of Lesion: NASAL CAVITY: ADENOMA, ESOPHAGUS: CARCINOMA, PAPILLOMA",active; positive
same,carcinogen call,"Species: HAMSTER, Strain/Sex: SYRIAN/MALE, Route: INTRAGASTRIC, Dose: 0, 36 MG/ML CORN OIL/ETHYL ACETATE (2:1) SOLUTION ADMINISTERED AS 0.2 ML 1/WK FOR 61 WK (STUDY DURATION: 106 WK), Tumor Site: Type of Lesion: NASAL CAVITY: ADENOMA, CARCINOMA, LIVER: HEPATOCELLULAR TUMOR",active; positive
same,carcinogen call,"Species: RAT, Strain/Sex: F344/FEMALE, Route: GAVAGE, Dose: 0, 14, MG/WK FOR A TOTAL DOSE OF 2.2 MMOL (STUDY DURATION: 40 WK), Dose: 0, 14, MG/WK FOR A TOTAL DOSE OF 2.2 MMOL (STUDY DURATION: 40 WK), Tumor Site: Type of Lesion: ESOPHAGUS: TUMOR, NASAL MUCOSA: TUMOR",active; positive
same,carcinogen call,"Species: RAT, Strain/Sex: F344/FEMALE, Route: INTRAGASTRIC, Dose: 0, 36 MG/ML CORN OIL/ETHYL ACETATE (2:1) SOLUTION ADMINISTERED AS 0.2 ML 2/WK FOR 20 WK (STUDY DURATION: 38 WK), Tumor Site: Type of Lesion: NASAL CAVITY: ADENOMA, ESOPHAGUS: CARCINOMA, PAPILLOMA",active; positive
same,carcinogen call,"Species: RAT, Strain/Sex: F344/FEMALE, Route: INTRAVESICULAR, Dose: 0, 7 MG IN 0.2 ML ETHANOL: DEIONIZED WATER (1:3) 2/WK FOR 23 WK (TOTAL DOSE 2.5 NMOL) (STUDY DURATION: LIFESPAN), Tumor Site: Type of Lesion: ESOPHAGUS: TUMOR, NASAL MUCOSA: TUMOR",active; positive
same,carcinogen call,"Species: RAT, Strain/Sex: F344/MALE, Route: GAVAGE, Dose: 0, 14 MG/WK FOR A TOTAL DOSE OF 2.2 MMOL (STUDY DURATION: 40 WK), Tumor Site: Type of Lesion: ESOPHAGUS: TUMOR, NASAL MUCOSA: TUMOR",active; positive
same,carcinogen call,"Species: RAT, Strain/Sex: F344/MALE, Route: INTRAGASTRIC, Dose: 0, 36 MG/ML CORN OIL/ETHYL ACETATE (2:1) SOLUTION ADMINISTERED AS 0.2 ML 2/WK FOR 20 WK (STUDY DURATION: 38 WK), Tumor Site: Type of Lesion: NASAL CAVITY: ADENOMA, CARCINOMA, ESOPHAGUS: CARCINOMA, PAPILLOMA",active; positive
same,carcinogen call,"Species: RAT, Strain/Sex: F344/MALE, Route: ORAL, Dose: 0, 144 MG/L DEIONIZED DRINKING WATER ADMINISTERED AS 80 ML/WK FOR 20 WK (STUDY DURATION: 38 WK), Tumor Site: Type of Lesion: NASAL CAVITY: ADENOMA, ESOPHAGUS: CARCINOMA, PAPILLOMA",active; positive
CNNCc1ccc(C(=O)NC(C)C)cc1,carcinogen call,"Species: MOUSE, Strain/Sex: B6C3F1/FEMALE, Route: INTRAPERITONEAL, Dose: 0, 6, 12 MG/KG IN BUFFERED SALINE 3/WK FOR 52 WK (STUDY DURATION: 67-85 WK), Dose: 0, 6, 12 MG/KG IN BUFFERED SALINE 3/WK FOR 52 WK (STUDY DURATION: 67-85 WK), Tumor Site: Type of Lesion: LUNG: ALVEOLAR/BRONCHIOLAR ADENOMA, HEMATOPOIETIC SYSTEM (LEUKEMIA), LYMPHATIC SYSTEM: LYMPHOMA, UTERUS: ADENOCARCINOMA, Tumor Site: Type of Lesion: LUNG: ALVEOLAR/BRONCHIOLAR ADENOMA, HEMATOPOIETIC SYSTEM (LEUKEMIA), LYMPHATIC SYSTEM: LYMPHOMA, UTERUS: ADENOCARCINOMA",active; positive
same,carcinogen call,"Species: MOUSE, Strain/Sex: B6C3F1/MALE, Route: INTRAPERITONEAL, Dose: 0, 6, 12 MG/KG IN BUFFERED SALINE 3/WK FOR 52 WK (STUDY DURATION: 67-85 WK), Dose: 0, 6, 12 MG/KG IN BUFFERED SALINE 3/WK FOR 52 WK (STUDY DURATION: 67-85 WK), Tumor Site: Type of Lesion: LUNG: ALVEOLAR/BRONCHIOLAR ADENOMA OR CARCINOMA, HEMATOPOIETIC SYSTEM (LEUKEMIA), LYMPHATIC SYSTEM: LYMPHOMA, BRAIN: OLF, Tumor Site: Type of Lesion: LUNG: ALVEOLAR/BRONCHIOLAR ADENOMA OR CARCINOMA, HEMATOPOIETIC SYSTEM (LEUKEMIA), LYMPHATIC SYSTEM: LYMPHOMA, BRAIN: OLF",active; positive
same,carcinogen call,"Species: RAT, Strain/Sex: BR46/MALE, Route: INTRAVENOUS, Dose: 24 MG/KG 1/WK FOR 52 WK, Tumor Site: Type of Lesion: MULTIPLE SITES: BENIGN TUMOR OR MALIGNANT TUMOR",active; positive
same,carcinogen call,"Species: RAT, Strain/Sex: SPRAGUE-DAWLEY/FEMALE, Route: INTRAPERITONEAL, Dose: 0, 15, 30 MG/KG IN BUFFERED SALINE 3/WK FOR 26 WK (STUDY DURATION: 31-86 WK), Dose: 0, 15, 30 MG/KG IN BUFFERED SALINE 3/WK FOR 26 WK (STUDY DURATION: 31-86 WK), Tumor Site: Type of Lesion: LYMPHATIC SYSTEM: MALIGNANT LYMPHOMA, MAMMARY GLAND: ADENOMA (NOS) OR ADENOCARCINOMA (NOS), BRAIN (CEREBRUM): OLFACTORY, Tumor Site: Type of Lesion: LYMPHATIC SYSTEM: MALIGNANT LYMPHOMA, MAMMARY GLAND: ADENOMA (NOS) OR ADENOCARCINOMA (NOS), BRAIN (CEREBRUM): OLFACTORY",active; positive
same,carcinogen call,"Species: RAT, Strain/Sex: SPRAGUE-DAWLEY/MALE, Route: INTRAPERITONEAL, Dose: 0, 15, 30 MG/KG IN BUFFERED SALINE 3/WK FOR 26 WK (STUDY DURATION: 43-86 WK), Dose: 0, 15, 30 MG/KG IN BUFFERED SALINE 3/WK FOR 26 WK (STUDY DURATION: 43-86 WK), Tumor Site: Type of Lesion: HEMATOPOIETIC SYSTEM (LEUKEMIA), LYMPHATIC SYSTEM: MALIGNANT LYMPHOMA, MAMMARY GLAND: ADENOMA (NOS) OR ADENOSARCOMA (NOS, Tumor Site: Type of Lesion: HEMATOPOIETIC SYSTEM (LEUKEMIA), LYMPHATIC SYSTEM: MALIGNANT LYMPHOMA, MAMMARY GLAND: ADENOMA (NOS) OR ADENOSARCOMA (NOS",active; positive
N#Cc1c(Cl)cccc1Cl,carcinogen call,"Species: MICE, Strain/Sex: SWISS/MALE, Route: INTRAPERITONEAL, Dose: 2 PPM (0.0005MG) 1/3 D FOR 13 TIMES (STUDY DURATION: 375 D), Tumor Site: Type of Lesion: LYMPHATIC SYSTEM: HISTIOCYTIC LYMPHOMA, PLASMA CELL LYMPHOMA, LIVER: HEPATOCELLULAR CARCINOMA",active; positive
same,carcinogen call,"Species: MICE, Strain/Sex: SWISS/MALE, Route: SUBCUTANEOUS, Dose: 2 PPM (0.0005MG) 1/3 D FOR 13 TIMES (STUDY DURATION: 375 D), Tumor Site: Type of Lesion: LYMPHATIC SYSTEM: PLASMA CELL LYMPHOMA, LUNG: CARCINOMA, BODY CAVITY: MESOTHELIOMA, LIVER: HEPATOCELLULAR CARCINOMA, Tumor Site: Type of Lesion: LYMPHATIC SYSTEM: PLASMA CELL LYMPHOMA, LUNG: CARCINOMA, BODY CAVITY: MESOTHELIOMA, LIVER: HEPATOCELLULAR CARCINOMA",active; positive
O=C1C(O)N=C(c2ccccc2F)c2cc(Cl)ccc2N1CCO (stereo unspecified),carcinogen call,"Species: RAT, Strain/Sex: SPRAGUE-DAWLEY/FEMALE, Route: ORAL, Dose: 0, 3, 10, 30 MG/KG IN THE DIET FOR 104 WK (STUDY DURATION: 104 WK), Dose: 0, 3, 10, 30 MG/KG IN THE DIET FOR 104 WK (STUDY DURATION: 104 WK)",inactive; negative
same,carcinogen call,"Species: RAT, Strain/Sex: SPRAGUE-DAWLEY/MALE, Route: ORAL, Dose: 0, 3, 10, 30 MG/KG IN THE DIET FOR 104 WK (STUDY DURATION: 104 WK), Dose: 0, 3, 10, 30 MG/KG IN THE DIET FOR 104 WK (STUDY DURATION: 104 WK)",inactive; negative
Cc1cccc(Nc2cc(Cl)nc(SCC(=O)NCCO)n2)c1C,carcinogen call,"Species: MOUSE, Strain/Sex: STRAIN-CS/FEMALE, Route: ORAL, Dose: 0.2% IN DIET FOR 19 MO, Tumor Site: Type of Lesion: LIVER: HEPATOCELLULAR CARCINOMA",active; positive
same,carcinogen call,"Species: RAT, Strain/Sex: F344/MALE, Route: ORAL, Dose: 0.05, 0.2% IN DIET FOR 19 MO (LOW DOSE) OR 16 MO (HIGH DOSE), Tumor Site: Type of Lesion: LIVER: HEPATOCELLULAR CARCINOMA",active; positive
O=C1c2ccccc2C(=O)c2c(O)c(O)cc(O)c21,carcinogen call,"Species: RAT, Strain/Sex: F344/MALE, Route: ORAL, Dose: 0, 1% IN DIET FOR 520 D (STUDY DURATION: 520 D), Tumor Site: Type of Lesion: URINARY BLADDER: CARCINOMA",active; positive
C#C[C@]1(O)CC[C@H]2[C@@H]3CCC4=CC(=O)CC[C@@H]4[C@H]3CC[C@@]21C,carcinogen call,"Species: MOUSE, Route: ORAL, Tumor Site: Type of Lesion: LIVER, LUNG",active; positive
